Reference: paper PMC11005723, “Development of Complementary Photo‐arginine/lysine to Promote Discovery of Arg/Lys hPTMs Interactomes” (Advanced Science, 2024)
Non-standard residues stand in square brackets, D forms with d. No end group written: not given here. *: point of attachment. Biotin = O=C1N[C@H]2[C@H](CS[C@H]2CCCCC(=O)*)N1; R(dz) = photo-arginine

Tested on: HEK293T nuclear lysates
Experiment: SILAC‐based pull‐down proteomics H4K5acK8ac/H4K5 (probes 8/5)
Format: binding, human
Conditions: for B6 log2 (H4K5ac8ac/H4K5): replicate B6; for A6 log2 (H4K5ac8ac/H4K5): replicate A6
[1] = protein YWHAB, Bos taurus (CON_00829553.1)

probe 8: H4K5acK8ac peptide probe with photo‐arginine R(dz) and K(biotin) (SG[R(dz)]GK(Ac)GGK(Ac)GLGKGGK(Biotin))
B6 log2 (H4K5ac8ac/H4K5) (protein MYH9 (P35579)): -0.04782 | A6 log2 (H4K5ac8ac/H4K5) (protein NAA10 (P41227)): -0.3046 | B6 log2 (H4K5ac8ac/H4K5) (protein NAA10 (P41227)): 0.05206 | A6 log2 (H4K5ac8ac/H4K5) (protein NACC1 (Q96RE7)): 0.2811 | B6 log2 (H4K5ac8ac/H4K5) (protein NACC1 (Q96RE7)): 0.03418 | A6 log2 (H4K5ac8ac/H4K5) (protein NFXL1 (Q6ZNB6)): 0.2111 | B6 log2 (H4K5ac8ac/H4K5) (protein NFXL1 (Q6ZNB6)): 0.02469 | A6 log2 (H4K5ac8ac/H4K5) (protein NOL9 (Q5SY16)): -0.2567 | B6 log2 (H4K5ac8ac/H4K5) (protein NOL9 (Q5SY16)): -0.02031 | A6 log2 (H4K5ac8ac/H4K5) (protein PA2G4 (Q9UQ80)): 0.1563 | B6 log2 (H4K5ac8ac/H4K5) (protein PA2G4 (Q9UQ80)): 0.03904 | A6 log2 (H4K5ac8ac/H4K5) (protein PACSIN2 (Q9UNF0)): 0 | B6 log2 (H4K5ac8ac/H4K5) (protein PACSIN2 (Q9UNF0)): -0.04928 | A6 log2 (H4K5ac8ac/H4K5) (protein PBX1 (A0A087X0P4)): 0.6964 | B6 log2 (H4K5ac8ac/H4K5) (protein PBX1 (A0A087X0P4)): 0.06283 | A6 log2 (H4K5ac8ac/H4K5) (protein POLR1A (B9ZVN9)): 0.06415 | B6 log2 (H4K5ac8ac/H4K5) (protein POLR1A (B9ZVN9)): -0.04145 | A6 log2 (H4K5ac8ac/H4K5) (protein PPA1 (Q15181)): 0.1577 | B6 log2 (H4K5ac8ac/H4K5) (protein PPA1 (Q15181)): 0.07333 | A6 log2 (H4K5ac8ac/H4K5) (protein PPP1CB (P62140)): -0.299 | B6 log2 (H4K5ac8ac/H4K5) (protein PPP1CB (P62140)): -0.01665 | A6 log2 (H4K5ac8ac/H4K5) (protein PPWD1 (F5H7P7)): -0.2794 | B6 log2 (H4K5ac8ac/H4K5) (protein PPWD1 (F5H7P7)): -0.02682 | A6 log2 (H4K5ac8ac/H4K5) (protein PRPF4 (O43172)): -0.3068 | B6 log2 (H4K5ac8ac/H4K5) (protein PRPF4 (O43172)): -0.007391 | A6 log2 (H4K5ac8ac/H4K5) (protein PRPF19 (Q9UMS4)): -0.3378 | B6 log2 (H4K5ac8ac/H4K5) (protein PRPF19 (Q9UMS4)): 0.03114 | A6 log2 (H4K5ac8ac/H4K5) (protein RAB18 (Q9NP72)): -0.7664 | B6 log2 (H4K5ac8ac/H4K5) (protein RAB18 (Q9NP72)): 0.06785 | A6 log2 (H4K5ac8ac/H4K5) (protein RBBP4 (Q09028)): -0.301 | B6 log2 (H4K5ac8ac/H4K5) (protein RBBP4 (Q09028)): -0.04139 | A6 log2 (H4K5ac8ac/H4K5) (protein RBBP5 (Q15291)): 0.327 | B6 log2 (H4K5ac8ac/H4K5) (protein RBBP5 (Q15291)): 0.03881 | A6 log2 (H4K5ac8ac/H4K5) (protein RBM17 (Q5W011)): -0.1033 | B6 log2 (H4K5ac8ac/H4K5) (protein RBM17 (Q5W011)): -0.0008232 | A6 log2 (H4K5ac8ac/H4K5) (protein RFC4 (C9JTT7)): -0.05533 | B6 log2 (H4K5ac8ac/H4K5) (protein RFC4 (C9JTT7)): 0.05642 | A6 log2 (H4K5ac8ac/H4K5) (protein RIF1 (Q5UIP0)): 0.1175 | B6 log2 (H4K5ac8ac/H4K5) (protein RIF1 (Q5UIP0)): 0.06957 | A6 log2 (H4K5ac8ac/H4K5) (protein RLTPR (Q6F5E8)): 0.7852 | B6 log2 (H4K5ac8ac/H4K5) (protein RLTPR (Q6F5E8)): 0.007574 | A6 log2 (H4K5ac8ac/H4K5) (protein RNF113A (O15541)): -0.4653 | B6 log2 (H4K5ac8ac/H4K5) (protein RNF113A (O15541)): 0.03846 | A6 log2 (H4K5ac8ac/H4K5) (protein RPL18A (M0R3D6)): -0.4315 | B6 log2 (H4K5ac8ac/H4K5) (protein RPL18A (M0R3D6)): -0.04492 | A6 log2 (H4K5ac8ac/H4K5) (protein RPL23 (P62829)): -0.1756 | B6 log2 (H4K5ac8ac/H4K5) (protein RPL23 (P62829)): 0.05216 | A6 log2 (H4K5ac8ac/H4K5) (protein SART1 (O43290)): -0.3683 | B6 log2 (H4K5ac8ac/H4K5) (protein SART1 (O43290)): 0.001654 | A6 log2 (H4K5ac8ac/H4K5) (protein SEPT9 (Q9UHD8)): 0.1535 | B6 log2 (H4K5ac8ac/H4K5) (protein SEPT9 (Q9UHD8)): -0.026 | A6 log2 (H4K5ac8ac/H4K5) (protein SKP1 (E5RJR5)): -0.01806 | B6 log2 (H4K5ac8ac/H4K5) (protein SKP1 (E5RJR5)): 0.0159 | A6 log2 (H4K5ac8ac/H4K5) (protein SMARCC1 (Q92922)): -0.08326 | B6 log2 (H4K5ac8ac/H4K5) (protein SMARCC1 (Q92922)): 0.04543 | A6 log2 (H4K5ac8ac/H4K5) (protein SMC4 (E9PD53)): -0.08362 | B6 log2 (H4K5ac8ac/H4K5) (protein SMC4 (E9PD53)): 0.02245 | A6 log2 (H4K5ac8ac/H4K5) (protein SRP9 (P49458)): -0.01043 | B6 log2 (H4K5ac8ac/H4K5) (protein SRP9 (P49458)): 0.03654 | A6 log2 (H4K5ac8ac/H4K5) (protein SRPRB (H7C4H2)): 0.3686 | B6 log2 (H4K5ac8ac/H4K5) (protein SRPRB (H7C4H2)): 0.07795 | A6 log2 (H4K5ac8ac/H4K5) (protein STRAP (Q9Y3F4)): 0.01226 | B6 log2 (H4K5ac8ac/H4K5) (protein STRAP (Q9Y3F4)): 0.01225 | A6 log2 (H4K5ac8ac/H4K5) (protein STUB1 (Q9UNE7)): 0.5197 | B6 log2 (H4K5ac8ac/H4K5) (protein STUB1 (Q9UNE7)): 0.03834 | A6 log2 (H4K5ac8ac/H4K5) (protein SUGP2 (M0R3F6)): -0.3599 | B6 log2 (H4K5ac8ac/H4K5) (protein SUGP2 (M0R3F6)): 0.02065 | A6 log2 (H4K5ac8ac/H4K5) (protein SYMPK (Q92797)): -0.08997 | B6 log2 (H4K5ac8ac/H4K5) (protein SYMPK (Q92797)): -0.0308 | A6 log2 (H4K5ac8ac/H4K5) (protein TBC1D4 (O60343)): 0.1383 | B6 log2 (H4K5ac8ac/H4K5) (protein TBC1D4 (O60343)): -0.03399 | A6 log2 (H4K5ac8ac/H4K5) (protein TBL3 (Q12788)): -0.1597 | B6 log2 (H4K5ac8ac/H4K5) (protein TBL3 (Q12788)): -0.02533 | A6 log2 (H4K5ac8ac/H4K5) (protein TKT (P29401)): -0.1341 | B6 log2 (H4K5ac8ac/H4K5) (protein TKT (P29401)): 0.0497 | A6 log2 (H4K5ac8ac/H4K5) (protein TMPO (P42167)): 0.4117 | B6 log2 (H4K5ac8ac/H4K5) (protein TMPO (P42167)): 0.03759 | A6 log2 (H4K5ac8ac/H4K5) (protein TTLL12 (Q14166)): 0.2441 | B6 log2 (H4K5ac8ac/H4K5) (protein TTLL12 (Q14166)): 0.0292 | A6 log2 (H4K5ac8ac/H4K5) (protein TXLNG (Q9NUQ3)): 0.4545 | B6 log2 (H4K5ac8ac/H4K5) (protein TXLNG (Q9NUQ3)): -0.0116 | A6 log2 (H4K5ac8ac/H4K5) (protein UHRF1 (Q96T88)): -0.6652 | B6 log2 (H4K5ac8ac/H4K5) (protein UHRF1 (Q96T88)): 0.04746 | A6 log2 (H4K5ac8ac/H4K5) (protein UHRF2 (Q96PU4)): -0.006334 | B6 log2 (H4K5ac8ac/H4K5) (protein UHRF2 (Q96PU4)): 0.0767 | A6 log2 (H4K5ac8ac/H4K5) (protein UPF1 (Q92900)): -0.46 | B6 log2 (H4K5ac8ac/H4K5) (protein UPF1 (Q92900)): -0.01045 | A6 log2 (H4K5ac8ac/H4K5) (protein VAPB (O95292)): -0.312 | B6 log2 (H4K5ac8ac/H4K5) (protein VAPB (O95292)): 0.06269 | A6 log2 (H4K5ac8ac/H4K5) (protein WAPAL (Q7Z5K2)): 0.1532 | B6 log2 (H4K5ac8ac/H4K5) (protein WAPAL (Q7Z5K2)): -0.009146 | A6 log2 (H4K5ac8ac/H4K5) (protein XRCC5 (P13010)): -0.05414 | B6 log2 (H4K5ac8ac/H4K5) (protein XRCC5 (P13010)): -0.03221 | A6 log2 (H4K5ac8ac/H4K5) [1]: -0.1065 | B6 log2 (H4K5ac8ac/H4K5) [1]: 0.02961 | A6 log2 (H4K5ac8ac/H4K5) (protein ZNF330 (Q9Y3S2)): 0.1967 | B6 log2 (H4K5ac8ac/H4K5) (protein ZNF330 (Q9Y3S2)): -0.03674 | A6 log2 (H4K5ac8ac/H4K5) (protein ZNF579 (Q8NAF0)): -0.0908 | B6 log2 (H4K5ac8ac/H4K5) (protein ZNF579 (Q8NAF0)): 0.0364 | A6 log2 (H4K5ac8ac/H4K5) (protein ZZZ3 (Q8IYH5)): -0.06959 | B6 log2 (H4K5ac8ac/H4K5) (protein ZZZ3 (Q8IYH5)): -0.004188
